Data from US20010034342A1, “Substituted urea and isothiourea derivatives as no synthase inhibitors” (priority 1993, published 2001).
Counter-ions that a name gives are not always drawn. Like-named read-outs stand apart in the source and are kept apart here.

How the values were obtained:
Type in all cases: biochemical
human placental NOS = molecular target: T1, human placental NOS (Homo sapiens, UniProt P29474); assay: Assay for human placental NOS (citrulline formation); conditions: for inhibition at 25 µM: @ 25 μM inhibitor, read-out: Human Placental, percent (inhibition) @ 25 μM
T1 construct: Purification of NOS from human placenta; from tissue; host or cells: fresh human placenta
Experimental: (§1) NOS was assayed for the formation of citrulline following the procedure of Schmidt et al (PNAS 88 365-369, 1991) with these modifications: 20 mM Hepes, pH 7.4, 10 μg/ml calmodulin, 2.5 mM CaCl2 2.5 mM DTT, 125 μM NADPH 10 μM H4 Biopterin, 0.5 mg/ml BSA, and 1 μM L-[14C] arginine (New England Nuclear). Linearity of NOS-catalyzed rate was confirmed prior to kinetic studies that used single tine point determination of rate.

Human brain NOS = molecular target: T2, Human brain NOS (Homo sapiens, UniProt P29475); assay: Human brain NOS enzyme activity assay; conditions: for Ki: isolated enzyme from human brain
T2 construct: Purification of NOS from human brain; from tissue; host or cells: frozen human brain
Experimental: The mixture was centrifuged at 13,000 g for 1 hour and the supernatant was removed (about 2050 ml). […] The precipitate was pelleted at 13,000 g for 30 minutes and the pellet was resuspended in −400 mls of buffer A with 4 μM tetrahydrobiopterin, 1 μm FAD (Sigma), 1 μM FMN (Sigma). The solution was centrifuged at 41,000 g for 60 minutes. The supernatant was removed, frozen by pouring into liquid nitrogen, and stored overnight at −70° C. The mixture was thawed and passed through a 2′,5′ ADP-agarose column (0.4 g swelled in buffer A) at 4 ml/min. The column was washed with 100 ml buffer A, 200 ml buffer A with 500 mM NaCl, 100 ml Buffer A, then 30 ml buffer A with 5 mM NADPH. […] To the enzyme was added tetrahydrobiopterin to 10 μM, FAD and FMN to 1 μM, and tween to 0.1%. This solution was concentrated by centriprep-30 to a volume of approximately 500 μl. Human NOS was prepared completely analogously except the calmodulin-agarose column was not used.

inducible human NOS = molecular target: T3, inducible human NOS (Homo sapiens, UniProt P35228); assay: Assay for inducible human NOS (citrulline formation), enzyme from cytokine-induced DLD-1 cells; conditions: for inhibition at 25 µM: @ 25 μM inhibitor, read-out: Human Inducible, percent (inhibition) @ 25 μM
T3 construct: Purification of NOS cytokine-induced human colorectal adenocarcinoma DLD-1 cells; endogenous in cells; host or cells: DLD-1 (ATCC No. CCL 221), induced with IFN-gamma, IL-6, TNF and IL-1beta
Experimental: as §1
DLD-1 (ATCC No. CCL 221) were grown at 37° C., 5% CO2 in RPMI 1640 medium supplemented with L-glutamin, penicillin, streptomycin, and 10% heat-inactivated fetal bovine serum. Cells were grown to confluency and then the following cocktail of cytokines were added: 100 units/ml interferon-gamma, 200 units/ml interleukin-6, 10 ng/ml tumor necrosis factor, and 0.5 ng/mil interleukin-1β. At 10-24 hr post-induction, cells were harvested by scraping and washed with phosphate-buffered saline. Pelleted cells were stored at −70° C. Purification of the induced NOS was performed at 4° C. Crude extract was prepared by three cycles of freeze/thawing cells in TDGB (20 mM tris pH 7.5, 10% glycerol, 1 mM DTT, 2 μM tetrahydrobiopterin). Extract was applied directly onto a column of 2′,5′ ADP sepharse (Pharmacia). Resin was sequentially washed with TDGB, 0.5 M NaCl in TDGB, TDGB. NOS was eluted with 2 mM NADPH in TDGB. BSA was immediately added to give a final concentration of 1 mg/ml. NOS could be quick frozen and stored at −70° C. without loss in activity for at least 2 months.
Assay for inducible human NOS.
The formation of citrulline was assayed as described above except that 10 μM FAD was included and calmodulin and CaCl2 were excluded from the assay mix.

[1] = isolated enzyme from human placenta, read-out: Human Placental Ki/μM
[2] = isolated enzyme from DLD-1 cells, read-out: Human Inducible Ki/μM
[3] = from percent inhibition at three or more concentrations at a single time point, assuming competitive inhibition with respect to arginine, read-out: Human Placental Ki/μM (footnote b)
[4] = from percent inhibition at three or more concentrations at a single time point, assuming competitive inhibition with respect to arginine, read-out: Human Inducible Ki/μM (footnote b)

T3 sequence (P35228 whole entry): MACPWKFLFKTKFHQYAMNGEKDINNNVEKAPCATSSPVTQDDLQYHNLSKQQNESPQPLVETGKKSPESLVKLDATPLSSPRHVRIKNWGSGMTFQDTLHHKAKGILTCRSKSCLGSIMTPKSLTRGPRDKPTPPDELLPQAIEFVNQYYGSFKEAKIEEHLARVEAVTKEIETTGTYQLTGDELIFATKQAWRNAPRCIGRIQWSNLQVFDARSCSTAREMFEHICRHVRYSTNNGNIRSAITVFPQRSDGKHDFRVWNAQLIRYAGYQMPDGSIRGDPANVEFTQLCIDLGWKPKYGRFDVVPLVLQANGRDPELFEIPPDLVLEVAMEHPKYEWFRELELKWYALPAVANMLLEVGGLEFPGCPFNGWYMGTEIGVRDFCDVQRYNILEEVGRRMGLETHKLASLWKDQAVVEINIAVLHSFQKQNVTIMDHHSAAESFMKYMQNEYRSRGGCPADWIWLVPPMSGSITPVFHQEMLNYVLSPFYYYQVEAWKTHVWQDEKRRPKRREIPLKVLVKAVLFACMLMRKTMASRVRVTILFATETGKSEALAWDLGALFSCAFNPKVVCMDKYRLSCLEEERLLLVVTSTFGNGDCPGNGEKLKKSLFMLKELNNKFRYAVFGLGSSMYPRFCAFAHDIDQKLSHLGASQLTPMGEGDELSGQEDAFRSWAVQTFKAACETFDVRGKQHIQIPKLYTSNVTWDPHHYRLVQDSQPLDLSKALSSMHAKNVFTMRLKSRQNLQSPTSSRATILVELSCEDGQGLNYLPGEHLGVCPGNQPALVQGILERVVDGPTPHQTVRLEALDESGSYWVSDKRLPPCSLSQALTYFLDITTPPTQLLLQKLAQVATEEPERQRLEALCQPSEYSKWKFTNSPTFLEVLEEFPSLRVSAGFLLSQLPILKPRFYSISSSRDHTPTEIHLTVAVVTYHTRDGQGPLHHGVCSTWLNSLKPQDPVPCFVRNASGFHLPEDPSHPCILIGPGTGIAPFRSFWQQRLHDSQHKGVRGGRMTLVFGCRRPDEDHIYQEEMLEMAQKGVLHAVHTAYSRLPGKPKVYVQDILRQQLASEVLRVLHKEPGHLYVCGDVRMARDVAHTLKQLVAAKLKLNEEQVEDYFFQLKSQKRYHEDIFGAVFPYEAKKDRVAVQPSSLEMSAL
T1 sequence (P29474 2-1203): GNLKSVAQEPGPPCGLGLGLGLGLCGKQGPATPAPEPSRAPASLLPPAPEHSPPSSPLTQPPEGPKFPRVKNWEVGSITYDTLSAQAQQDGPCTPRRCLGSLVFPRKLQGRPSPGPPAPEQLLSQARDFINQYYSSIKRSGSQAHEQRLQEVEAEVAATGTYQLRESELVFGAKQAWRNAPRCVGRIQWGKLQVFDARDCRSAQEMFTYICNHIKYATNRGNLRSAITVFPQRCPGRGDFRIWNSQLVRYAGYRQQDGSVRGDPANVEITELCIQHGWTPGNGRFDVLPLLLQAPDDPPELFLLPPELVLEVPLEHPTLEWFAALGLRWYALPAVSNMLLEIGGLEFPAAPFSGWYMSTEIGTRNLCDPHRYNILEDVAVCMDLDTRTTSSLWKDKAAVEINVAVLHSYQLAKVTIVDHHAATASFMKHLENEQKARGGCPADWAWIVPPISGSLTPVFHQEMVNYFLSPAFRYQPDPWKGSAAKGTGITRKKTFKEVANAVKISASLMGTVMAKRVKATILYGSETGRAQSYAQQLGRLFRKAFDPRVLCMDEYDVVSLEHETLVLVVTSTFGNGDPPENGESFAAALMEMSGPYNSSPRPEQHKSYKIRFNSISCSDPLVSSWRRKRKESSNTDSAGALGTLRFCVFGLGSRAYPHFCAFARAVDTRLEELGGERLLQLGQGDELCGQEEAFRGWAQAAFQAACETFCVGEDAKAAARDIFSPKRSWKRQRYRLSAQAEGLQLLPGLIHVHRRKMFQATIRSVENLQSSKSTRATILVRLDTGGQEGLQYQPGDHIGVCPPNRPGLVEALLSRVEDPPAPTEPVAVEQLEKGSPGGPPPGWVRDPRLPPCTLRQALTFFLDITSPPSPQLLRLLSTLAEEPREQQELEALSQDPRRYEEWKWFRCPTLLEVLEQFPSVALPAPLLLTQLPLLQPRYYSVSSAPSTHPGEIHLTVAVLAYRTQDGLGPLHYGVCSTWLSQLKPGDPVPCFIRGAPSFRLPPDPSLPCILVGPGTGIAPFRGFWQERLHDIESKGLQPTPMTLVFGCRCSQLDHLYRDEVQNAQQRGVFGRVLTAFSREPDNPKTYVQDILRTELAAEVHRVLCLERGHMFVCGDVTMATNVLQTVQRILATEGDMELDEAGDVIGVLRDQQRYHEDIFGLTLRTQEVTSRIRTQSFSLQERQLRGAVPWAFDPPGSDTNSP
T2 sequence (P29475 whole entry): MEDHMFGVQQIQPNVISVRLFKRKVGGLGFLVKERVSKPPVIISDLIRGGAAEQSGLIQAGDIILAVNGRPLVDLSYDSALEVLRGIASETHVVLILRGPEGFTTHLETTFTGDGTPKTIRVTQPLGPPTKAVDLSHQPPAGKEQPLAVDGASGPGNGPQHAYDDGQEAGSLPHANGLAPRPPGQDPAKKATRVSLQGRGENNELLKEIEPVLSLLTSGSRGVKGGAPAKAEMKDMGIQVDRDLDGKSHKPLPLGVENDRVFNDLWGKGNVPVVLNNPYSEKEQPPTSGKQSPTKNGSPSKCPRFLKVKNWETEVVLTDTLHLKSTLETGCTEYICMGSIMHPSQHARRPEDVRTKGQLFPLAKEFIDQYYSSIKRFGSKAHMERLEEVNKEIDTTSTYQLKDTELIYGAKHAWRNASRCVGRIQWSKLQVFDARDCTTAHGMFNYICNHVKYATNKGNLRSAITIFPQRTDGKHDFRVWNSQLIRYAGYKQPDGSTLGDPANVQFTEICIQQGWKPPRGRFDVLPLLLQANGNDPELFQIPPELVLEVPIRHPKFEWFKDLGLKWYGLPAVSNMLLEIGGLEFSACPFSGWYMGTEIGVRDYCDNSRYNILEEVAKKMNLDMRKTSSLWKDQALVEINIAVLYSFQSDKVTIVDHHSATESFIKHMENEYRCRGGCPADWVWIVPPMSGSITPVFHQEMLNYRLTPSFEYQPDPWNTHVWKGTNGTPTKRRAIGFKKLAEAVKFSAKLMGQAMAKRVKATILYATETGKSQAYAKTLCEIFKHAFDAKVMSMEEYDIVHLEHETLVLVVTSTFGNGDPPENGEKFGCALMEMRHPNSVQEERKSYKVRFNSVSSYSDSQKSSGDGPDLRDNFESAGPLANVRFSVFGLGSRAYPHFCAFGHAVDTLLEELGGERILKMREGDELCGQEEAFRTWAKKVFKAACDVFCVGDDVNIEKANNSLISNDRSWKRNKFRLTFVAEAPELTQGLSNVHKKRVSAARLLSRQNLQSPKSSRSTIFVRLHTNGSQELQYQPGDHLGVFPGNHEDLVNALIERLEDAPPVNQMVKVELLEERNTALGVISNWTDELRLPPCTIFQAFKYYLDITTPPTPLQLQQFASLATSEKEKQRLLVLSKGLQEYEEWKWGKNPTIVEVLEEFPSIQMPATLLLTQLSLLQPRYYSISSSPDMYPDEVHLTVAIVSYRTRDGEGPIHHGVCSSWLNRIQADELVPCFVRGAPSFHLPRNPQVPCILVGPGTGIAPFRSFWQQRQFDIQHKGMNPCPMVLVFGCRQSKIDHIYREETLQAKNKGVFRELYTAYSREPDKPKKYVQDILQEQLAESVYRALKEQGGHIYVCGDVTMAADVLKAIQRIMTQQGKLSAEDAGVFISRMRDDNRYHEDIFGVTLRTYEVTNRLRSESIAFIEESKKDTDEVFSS

Row | Compound | Ki (human placental NOS; [1]) | Ki (Human brain NOS) | Ki (inducible human NOS; [2]) | further results
1 | CCOC(=O)c1ccc(NC(=N)SCC)cc1 [Example 1C, S-ethyl-N-[4-(ethoxycarbonyl)phenyl]isothiourea] | 12 µM | 1.6 µM | > 25 µM | 
2 | CCSC(=N)Nc1ccc(C(=O)O)cc1 [Example 1D, S-ethyl-N-(4-carboxyphenyl)isothiourea] |  |  |  | inhibition at 25 µM (human placental NOS): 14%; inhibition at 25 µM (Human brain NOS; @ 25 μM inhibitor, read-out: Human Brain, percent (inhibition) @ 25 μM): 30%; Human Inducible, percent (inhibition), concentration not given (inducible human NOS): 0%
3 | CCSC(=N)Nc1cccc(C(=O)O)c1 [Example 1E, S-ethyl-N-(3-carboxyphenyl)isothiourea] | 14 µM |  | 44 µM | 
4 | CCSC(=N)Nc1ccc(N(C)C)cc1 [Example 1G, S-ethyl-N-(4-dimethylaminophenyl)isothiourea] | 9 µM | 1.4 ± 0.01 µM | 29 µM | 
5 | CCSC(=N)Nc1ccc(C2CCCCC2)cc1 [Example 1H, S-ethyl-N-(4-cyclohexylphenyl)isothiourea] | 14 µM | 1.5 ± 0.07 µM | 28 µM | 
6 | CCSC(=N)Nc1ccccn1 [Example 1K, S-ethyl-N-(2-pyridyl)isothiourea] |  | 4.8 µM |  | inhibition at 25 µM (human placental NOS): 48%; inhibition at 25 µM (inducible human NOS): 48%
7 | CCSC(=N)Nc1ccc(C(F)(F)F)cc1 [Example 2, S-ethyl-N-[4-(trifluoromethyl)phenyl]isothiourea hydrochloride] | 9.4 µM | 0.32 ± 0.02 µM |  | inhibition at 25 µM (inducible human NOS): 36%
8 | CCSC(=N)Nc1ccccc1C(C)C [Example 2C, S-Ethyl-N-(2-isopropylphenyl)isothiourea] | 6.5 µM | 1.13 ± 0.02 µM | 10 µM | 
9 | CCSC(=N)Nc1ccc(C(C)C)cc1 [Example 2D, S-Ethyl-N-(4-isopropylphenyl)isothiourea] | 7.7 µM | 0.33 µM |  | 
10 | CCSC(=N)Nc1cccc(C(F)(F)F)c1 [Example 2E, S-Ethyl-N-[3-(trifluoromethyl)phenyl]isothiourea] | 28 µM | 1.1 ± 0.01 µM | 3.2 µM | 
11 | CCSC(=N)Nc1cccnc1 [Example 2J, S-Ethyl-N-(3-pyridyl)isothiourea] | 6.9 µM | 1 µM |  | inhibition at 25 µM (inducible human NOS): 47%
12 | CCSC(=N)Nc1ccc(Cl)c(C(F)(F)F)c1 [Example 2K, S-Ethyl-N-(4-chloro-3-(trifluoromethyl)phenyl)isothiourea] | 8.2 µM | 4.2 µM | 17 µM | 
13 | CCSC(=N)Nc1cc(C(F)(F)F)ccc1Cl [Example 2L, S-Ethyl-N-(2-chloro-5-(trifluoromethyl)phenyl)isothiourea] |  |  |  | Human Placental, percent (inhibition), concentration not given (human placental NOS): 6%; Human Brain, percent (inhibition), concentration not given (Human brain NOS; concentration not given): 40%; Human Inducible, percent (inhibition), concentration not given (inducible human NOS): 20%
14 | CCSC(=N)Nc1ccncc1 [Example 2M, S-Ethyl-N-(4-pyridyl)isothiourea] | 6.9 µM | 1 ± 0.2 µM | 23 µM | 
15 | CCOC(=N)Nc1ccc(C(F)(F)F)cc1 [Example 3A, O-Ethyl-N-(4-(trifluoromethyl)phenyl)isourea] |  | 1.9 ± 0.1 µM |  | Human Placental, percent (inhibition), concentration not given (human placental NOS): 35%; Human Inducible, percent (inhibition), concentration not given (inducible human NOS): 12%
16 | N[C@@H](CCCNC1=NCCS1)C(=O)O [Example 5, N^5-(2-thiazolin-2-yl)-L-ornithine] | 5.5 µM |  | 3.3 µM | 
17 | N[C@@H](CCCCNC1=NCCS1)C(=O)O [Example 5A, N^6-(2-thiazolin-2-yl)-L-lysine] | 21 µM |  | 11 µM | 

Row | Compound | Ki (human placental NOS; [1]) | Ki (Human brain NOS) | Ki (inducible human NOS; [2]) | further results
18 | CSC(=N)NCc1cccc(CNC(=N)SC)c1 [Example 6, N, N′-((methylthio)iminomethyl)-m-xylylenediamine] | 17 µM | 0.5 µM | 2.3 µM | 
19 | CSC(=N)NCc1ccc(CNC(=N)SC)cc1 [Example 7, N,N-((methylthio)iminomethyl)-p-xylylenediamine] | 22 µM | 3.2 µM | 45 µM | 
20 | CSC(=N)NCCC[C@H](N)C(=O)O [Example 8] |  |  |  | Ki (human placental NOS; [3]): 0.07 µM; Kd (Human brain NOS; Kd from association and dissociation rate constants for the slow onset of inhibition, read-out: Human Brain Ki/μM (footnote c: value is a Kd)): 0.001 µM; Ki (inducible human NOS; from steady state inhibited rate / control rate, assuming competitive inhibition with respect to arginine, read-out: Human Inducible Ki/μM (footnote a)): 0.034 µM
21 | CC(C)SC(=N)NCCCC[C@H](N)C(=O)O [Example 9D, N^6-(imino(1-methylethylthio)methyl)L-lysine] | 23.2 µM | 28 µM | 22.6 µM | 
22 | CC(C)CSC(=N)NCCC[C@H](N)C(=O)O [Example 9E, N^5-(imino(2-methylpropylthio)methyl)-L-ornithine] | 14 µM | 5.5 µM | 5.3 µM | 
23 | CC(C)CSC(=N)NCCCC[C@H](N)C(=O)O [Example 9F, N^6-(imino(2-methylpropylthio)methyl)-L-lysine] | 79 µM | 61 µM |  | 
24 | CC(C)SC(=N)NCCC[C@@H](N)C(=O)O [Example 9K] | 30 µM | 61 µM | 40 µM | 
25 | CC(C)SC(=N)NCCCC[C@@H](N)C(=O)O [Example 9L] | 23 µM | 108 µM | 19 µM | 
26 | CC(C)CSC(=N)NCCC[C@@H](N)C(=O)O [Example 9M, N^5-((2-methylpropylthio)iminethyl)-D-ornithine] |  | 19.5 µM | 13 µM | 
27 | CCOC(=N)NCc1cccc(CN)c1 [Example 12, 1-(3-(Aminomethyl)benzyl)-O-ethylisourea] | 4.1 µM | 0.09 µM | 1.7 µM | 
28 | CSC(=N)NCc1ccc(CN)cc1 [Example 14, 1-(4-(Aminomethyl)benzyl)-S-methylisothiourea] | 23.2 µM | 28 µM | 22.6 µM | 
29 | CCSC(=N)NCc1ccc(CN)cc1 [Example 14A, 1-(4-(Aminomethyl)benzyl)-S-ethylisoiourea] | 14 µM | 5.5 µM | 5.3 µM | 
30 | N^5-(ethoxyiminomethyl)-L-ornithine dihydrochloride [10^c(ii)] |  |  |  | Ki (human placental NOS; from steady state inhibited rate / control rate, assuming competitive inhibition with respect to arginine, read-out: Human Placental Ki/μM (footnote a)): 0.006 µM; Ki (inducible human NOS; [4]): 0.1 µM
31 | N^5-(iminomethoxymethyl)-L-ornithine dihydrochloride [10^c(i)] |  |  |  | Ki (human placental NOS; [3]): 0.12 µM; Ki (inducible human NOS; [4]): 0.22 µM
32 | N^6-((methylpropylthio)iminomethyl-D-lysine [Example 9N] | 99 µM | 61 µM |  | 
33 | N^6-((methylthio)iminomethyl)-D-lysine [Example 9H] | 1.2 µM | 0.4 µM | 5.3 µM | 
34 | N^6-(ethylthio)iminomethyl-D-lysine [Example 9J] | 1.3 µM | 0.56 µM | 7 µM | 

Further lines, with some results ahead:

Row | Ki (human placental NOS; [1]) | Ki (Human brain NOS) | Ki (inducible human NOS; [2]) | Compound | further results
35 | 4 µM | 0.19 ± 0.01 µM | 3.1 µM | CCSC(=N)Nc1ccc(Oc2ccccc2)cc1 [Example 1, S-Ethyl-N-(4-phenoxyphenyl)isothiourea] | 
36 | 3.1 µM | 0.56 ± 0.02 µM | 3.2 µM | CCSC(=N)Nc1cccc(OC)c1 [Example 1A, S-ethyl-N-(3-methoxyphenyl)isothiourea] | 
37 | 2.8 µM | 0.21 ± 0.01 µM | 6.6 µM | CCSC(=N)Nc1ccc(OCc2ccccc2)cc1 [Example 1B, S-ethyl-N-[4-(benzyloxy)phenyl]isothiourea] | 
38 | 2 µM | 0.25 ± 0.02 µM | 4.7 µM | CCSC(=N)Nc1ccccc1Br [Example 1F, S-ethyl-N-(2-bromophenyl)isothiourea] | 
39 | 2.7 µM | 0.34 µM | 2.5 µM | CCSC(=N)Nc1ccc(O)cc1 [Example 1I, S-ethyl-N-(4-hydroxyphenyl)isothiourea] | 
40 | 2.7 µM | 0.29 ± 0.04 µM | 4.9 µM | CCSC(=N)Nc1ccc(OC)cc1 [Example 1J, S-ethyl-N-(4-methoxyphenyl)isothiourea] | 
41 | 1.8 µM | 0.45 µM | 2.4 µM | CCSC(=N)Nc1cccc(Cl)c1 [Example 2B, S-Ethyl-N-(3-chlorophenyl)isothiourea] | 
42 | 1.8 µM | 1.4 ± 0.01 µM | 22 µM | CCSC(=N)Nc1ccccc1C(F)(F)F [Example 2F, S-Ethyl-N-[2-(trifluoromethyl)phenyl]isothiourea] | 
43 | 1.8 µM | 0.17 µM | 2.9 µM | CCSC(=N)Nc1ccccc1Cl [Example 2G] | 
44 | 1.6 µM | 0.17 ± 0.02 µM | 1.4 µM | CCSC(=N)Nc1ccccc1OC [Example 2H, S-Ethyl-N-(2-methoxyphenyl)isothiourea] | 
45 | 1 µM | 0.18 ± 0.04 µM | 1.9 µM | CCSC(=N)Nc1ccc(C)cc1 [Example 2I, S-Ethyl-N-(4-methylphenyl)isothiourea] | 
46 | 4.1 µM | 0.09 µM | 1.7 µM | CSC(=N)NCCCC[C@H](N)C(=O)O [Example 9A, N^6-(imino(methylthio)methyl)L-lysine] | 
47 | 2.1 µM | 0.9 µM | 0.15 µM | CC(C)SC(=N)NCCC[C@H](N)C(=O)O [Example 9C, N^5-(imino(1-methylethylthio)methyl)-L-ornithine] | 
48 | 3.3 µM | 3 µM | 0.69 µM | CSC(=N)NCc1cccc(CN)c1 [Example 13, 1-(3-(Aminomethyl)benzyl)-S-methylisothiourea] | 
49 | 2.1 µM | 0.9 µM | 0.15 µM | CCSC(=N)NCc1cccc(CN)c1 [Example 13A, 1-(3-(Aminomethyl)benzyl)S-ethylisothiourea] | 
